Earlier results as cited in patent US20050272687A1, “Stable S-adenosyl-l-methionine” (priority 2004, published 2005).

Columns and labels:
[1] = tested on: S-adenosyl-1-methionine-dependent methyltransferases
[2] = tested on: nucleolar 2-O-methyltransferase
[3] = in vivo
[4] = same conditions as in example 10 (room temperature, light, closed bottle), after 4 months
[5] = tested on: alcoholic liver cirrhosis; details: oral; as compared with a placebo treated group
[6] = during the course of the clinical trial

In the case of `C[S@@+](CC[C@@H](N)C(=O)O)C[C@H]1O[C@@H](n2cnc3c(N)ncnc32)[C@H](O)[C@@H]1O` (racemic) [(+)-SAM, (R,S)-S-adenosyl-1-methionine], the “inhibition of enzyme-catalyzed transmethylation reactions” value [1] is given as “potent inhibitor”.

For `C[S@@+](CC[C@H](N)C(=O)O)C[C@H]1O[C@@H](n2cnc3c(N)ncnc32)[C@H](O)[C@@H]1O` [(S,S)-S-adenosyl-1-methionine], the “tightness of enzyme binding relative to (R,S)-S-adenosyl-1-methionine” value [2] is given as 10 fold.

For `C[S+](CC[C@H](N)C(=O)O)C[C@H]1O[C@@H](n2cnc3c(N)ncnc32)[C@H](O)[C@@H]1O.C[S+](CC[C@H](N)C(=O)O)C[C@H]1O[C@@H](n2cnc3c(N)ncnc32)[C@H](O)[C@@H]1O.O=S(=O)([O-])CCCCS(=O)(=O)[O-]` (stereo partly drawn) [S-adenosyl-1-methionine 1,4 butanedisulfonate], the “oral absorption compared with other salts” value [3] is given as “better absorbed orally than any other salts” and the deterioration [4] is given as 43.9%.

In the case of `C[S+](CC[C@H](N)C(=O)O)C[C@H]1O[C@@H](n2cnc3c(N)ncnc32)[C@H](O)[C@@H]1O.Cc1ccc(S(=O)(=O)[O-])cc1` (stereo partly drawn) [S-adenosyl-1-methionine tosylate], the deterioration [4] is listed as 92.9%.

For `C[S+](CC[C@H](N)C(=O)[O-])C[C@H]1O[C@@H](n2cnc3c(N)ncnc32)[C@H](O)[C@@H]1O` (stereo partly drawn) [S-adenosyl-1-methionine], the “overall mortality and/or progression to liver transplant” value [5] is given as 29% vs 12%, the “(R,S) S-adenosyl-1-methionine share after epimerization” value [6] is given as 55% and the “(S,S) S-adenosyl-1-methionine share after epimerization” value [6] is given as 45%.

In the case of `CC(C)NCC(O)COc1cccc2ccccc12` (stereo not drawn) [propranolol], the “potency of L-form relative to D-enantiomer” value (beta-adrenergic) is given as 100 times.
